Where a name gives a salt, the structure may show the parent alone.
Assays:
[1] = test system: phosphodiesterase isolated from rat brain; experiment: Inhibition of phosphodiesterase isolated from rat brain (radioisotopic, 3H-c-AMP); format: biochemical; conditions: for effect of the test compound on enzyme activity: 20 minutes incubation; for IC50: rat brain, read off from curve, 50% decrease of enzyme activity, read-out: I50 on phosphodiesterase
Description: (§1) The model experiments were performed by means of phosphodiesterase isolated from animal tissues (rat brain, cattle brain, cattle heart). The enzyme was isolated by the technique of J. Schro/ der and H. V. Richenberg [Biochem. Biophys. Acta 302, 50 (1973)] whereupon the phosphodiesterase isolated was purified according to the method of J. G. Hardman and E. W. Sutherland [J. Biol. Chem. 240, 3704 (1965)] and the activity of the purified enzyme was measured by a radioisotopic method developed by G. Po/ ch, in the presence of an excess amount of c-AMP tricium-labeled (10.1 mmoles of a c-AMP substrate containing 2.59K Bq of 3H-c-AMP), in an incubator. The measurement was first carried out without the inhibitory substance and then in the presence of 17,18-dehydro-apivincaminol-3',4',5'-trimethoxy-benzoate as an inhibitor agent, after an incubation time of 20 minutes [N.S. Arch. Pharmacol. 268, 272 (1971)]. From the test compound a 1 mmole stock solution was prepared with aqueous hydrochloric acid solution and different amounts of the stock solution were added to the enzyme preparates corresponding to 5×10^-6, 1×10^-5 and 5×10^-5 mole/lit. of the test compound. A solution of papaverine used as reference compound is added to the enzyme preparate in an analogous manner.
The activity of the solutions containing 17,18-dehydro-apovincaminol-3',4',5'-trimethoxy-benzoate and papaverine was expressed in percents of the control (enzyme solution without any inhibitory substance, 100%). The results obtained on an enzyme isolated from rat brain are as follows:
(§2) The tests on an enzyme isolated from cattle brain and cattle heart, resp. were carried out in an analogous way.

[2] = test system: phosphodiesterase isolated from cattle brain; experiment: Inhibition of phosphodiesterase isolated from cattle brain (radioisotopic, 3H-c-AMP); format: biochemical; conditions: for IC50: cattle brain, read off from curve, 50% decrease of enzyme activity, read-out: I50 on phosphodiesterase
Description: as §1, §2

[3] = test system: phosphodiesterase isolated from cattle heart; experiment: Inhibition of phosphodiesterase isolated from cattle heart (radioisotopic, 3H-c-AMP); format: biochemical; conditions: for IC50: cattle heart, read off from curve, 50% decrease of enzyme activity, read-out: I50 on phosphodiesterase
Description: as §1, §2

[4] = test system: psoriasis; experiment: Clinical test of topical creams on patients suffering from psoriasis (plaque method); format: in vivo, patients (human); conditions: cream with 2% active ingredient, scale 0-3
Description: The first clinical tests were carried out with preparations for topical use, e.g. ointments, creams, solutions, tinctures, pastes, aerosols, etc. containing the new compound according to the invention as an active ingredient. More particularly, creams containing 2%, 1%, 0.5%, 0.25% and […], resp. of 17,18-dehydro-apovincaminol-3',4',5'-trimethoxy-benzoate were employed.
Clinical tests were performed on patients suffering from psoriasis. During the tests the patients have not received any systemic, e.g. immunosuppressive, cytostatic or glucocorticoid treatment for their basic disease.
Groups of 5 were examined by the so-called plaque method. One side of symmetrical skin lesions was treated by a creme containing the active ingredient in the desired concentration, while on the other side a placebo was applied. The remaining psoriatic sites on the skin were subjected to other topical treatments for example with ointments containing flumethasone pivalate and salicylic acid, as active ingredient, which are widely used for the treatment of psoriasis.
The tests were started with creams having a higher active ingredient concentration and then further patients were treated with preparations containing the smallest effective active ingredient concentration.
The efficiency was evaluated upon observing three symptoms: inflammation, infiltration and desquamation (peeling). The intensity of the symptoms was qualified by scores between 0 and 3. The total number of scores served as a measure of the reduction of symptoms. The results were evaluated by methods of mathematical statistics. During the treatment undesirable side effects have never been observed.
Evaluations were made before the treatment (I), after a one-week treatment (II) and after a two-week treatment (III). The results set forth in the following table are the average number of scores (total number of scores/number of patient) for creams containing 2% of active ingredient.

[5] = test system: psoriasis; conditions: phosphodiesterase inhibitor; Voorhees et al., Arch. Derm. 104, 359 (1971); cited from earlier work
[6] = rat brain enzyme, 1 × 10^-5 mole/lit.
[7] = rat brain enzyme, 5 × 10^-5 mole/lit.
[8] = rat brain enzyme, 5 × 10^-6 mole/lit.

With `CC[C@]12C=CCN3CCc4c(n(c5ccccc45)C(COC(=O)c4cc(OC)c(OC)c(OC)c4)=C1)[C@@H]32` [17,18-Dehydro-apovincaminol-3',4',5'-trimethoxy-benzoate] the “times more effective than papaverine” value ([1]; rat brain enzyme, versus papaverine) was 7 times, the “times more effective than papaverine” value ([2]; cattle brain enzyme, versus papaverine) was 6 times and the “times more effective than papaverine” value ([3]; cattle heart enzyme, versus papaverine) was 18 times. For the same compound, the “Average number of scores, Desquamation” value ([4]; I: before the treatment) was 2.0 scores, the “Average number of scores, Infiltration” value ([4]; I: before the treatment) was 2.6 scores and the “Average number of scores, Inflammation” value ([4]; I: before the treatment) was 2.8 scores. For the same compound, the “Average number of scores, Desquamation” value ([4]; II: after one-week treatment) was 0.8 scores, the “Average number of scores, Infiltration” value ([4]; II: after one-week treatment) was 1.6 scores and the “Average number of scores, Inflammation” value ([4]; II: after one-week treatment) was 2.2 scores. For the same compound, the “Average number of scores, Desquamation” value ([4]; III: after two-week treatment) was 0.2 scores, the “Average number of scores, Infiltration” value ([4]; III: after two-week treatment) was 0.6 scores and the “Average number of scores, Inflammation” value ([4]; III: after two-week treatment) was 1.6 scores.
For `CC[C@]12C=CCN3CCc4c(n(c5ccccc45)C(COC(=O)c4cc(OC)c(OC)c(OC)c4)=C1)[C@@H]32` [17,18-dehydro-apovincaminol-3',4',5'-trimethoxy-benzoate.HCl], the “effect of the test compound on enzyme activity” value (shortened to “effect of the test compound”) [1, 6] was 40.7 % of the control, the “effect of the test compound” value [1, 7] was 38.6 % of the control and the “effect of the test compound” value [1, 8] was 84.7 % of the control. It also gave an IC50 [1] of 10 µM, an IC50 [2] of 15 µM and an IC50 [3] of 3 µM.
For `COc1ccc(Cc2nccc3cc(OC)c(OC)cc23)cc1OC` [papaverine.HCl, papaverine, reference compound], the “effect of the test compound” value [1, 6] was 89.7 % of the control, the “effect of the test compound” value [1, 7] was 60.5 % of the control and the “effect of the test compound” value [1, 8] was 91.2 % of the control. The IC50 [1] was 70 µM, the IC50 [2] was 90 µM and the IC50 [3] was 50 µM.
For `COc1ccc(Cc2nccc3cc(OC)c(OC)cc23)cc1OC` [papaverine], the effect on psoriasis [5] is listed as “successfully influenced psoriasis”.
